Measured values as given in patent US20240390355A1, “IRHOM2 INHIBITORS AND USES THEREOF” (NEW YORK SOCIETY FOR THE RELIEF OF THE RUPTURED AND …, priority 2021, published 2024).
pIC50: −log10 of the molar value.

Columns and labels:
Format in all cases: cell-based
[1] = tested on: TGFα release from HEK-293 cells; assay: Counter screen (Example 4b): PMA-stimulated TGFα release from HEK-293 cells, AP readout; conditions: Homo sapiens, HEK293, HEK-293 cells expressing TGFα-AP, PMA 100 ng/mL, 2 h
Experimental: (§1) A tertiary counterscreen was also performed to monitor the release of TGFα, which is a substrate of iRhom1/ADAM17 and iRhom2/ADAM17, so its release should not be blocked by an iRhom2-selective inhibitor (Maretzky T et al. (July 2013), “iRhom2 controls the substrate selectivity of stimulated ADAM17-dependent ectodomain shedding”, PNAS 110(28): 11433-11438; and Li X et al. (May 2015), “iRhoms 1 and 2 are essential upstream regulators of ADAM17-dependent EGFR signaling”, PNAS 112(19): 6080-6085).
(§2) Expression plasmids for alkaline phosphatase (AP)-fused human KL2 and TGFα had been previously designed and generated through gene synthesis followed by subcloning into the pcDNA3.1(+)/Hygro expression vector. […] Subsequently, DNA amplifications were performed to obtain sufficient amounts of the expression vectors. The quality of DNA and gene sequences were confirmed through restriction digest and Sanger sequencing. In parallel, cell culture of HEK-293 cells was initiated. Master and working cell banks were prepared, scaled up and transfected with the respective constructs by electroporation. During cell culturing, cell density and viability were monitored to ensure optimal conditions for the transfections. After PMA stimulation, AP-coupled KL2 or TGFα were detected by measurement of AP activity in the supernatant.
(§3) After electroporation, cells were further cultured in presence of selection antibiotics, hygromycin B, to generate stably transfected polyclonal cell pools. For both assays, KL2 and TGFα shedding, the respective selected pool turned out to be suitable. Final assay conditions were determined for the selected pools. For all experiments, batimastat (BB94, 10 μM) was used as positive control for full inhibition of KL2 or TGFα shedding.
(§4) The wells of sterile 384-well flat bottom clear plates for TGF-AP assays were coated with 10 μL of 0.1 mg/mL poly-d-lysine for 3-4 hr at 25° C. or overnight at 4° C., then washed 2× with PBS and patted dry. 60 μL of cells (20,000/well) were added to the sterile 384-well plate and incubated in Optimem (with 2% FCS and 1% Pen-strep) overnight at 37° C. (5% CO2). After incubation overnight, 55 μL medium were removed with a BioTek EL406 and 10 μL of prediluted compounds were added to the cells for a final concentration of 20 μM. After incubation for 15 min, 15 μL of PMA (100 ng/mL final conc.) were added. The cells were incubated for 2 h at 37° C. (5% CO2). Then, the plates were centrifuged for 5 min at 1000 rpm and 12 μL of the supernatant was transferred to a fresh 384 well plate. 12 μL of pNPP p-nitrophenyl phosphate (final 1 M pNPP) was added. AP reaction was performed for 1 h at 37° C. The reaction was stopped by addition of 12 μL of NaOH (1 M final conc.), the plates were centrifuged to remove air bubbles and the absorbance of pNP was measured at 405 nm.

[2] = tested on: TNFα release from THP-1 cells; assay: Primary screen (Example 1b): LPS-stimulated TNFα release from THP-1 cells, overnight pre-incubation, HTRF; conditions: Homo sapiens, overnight with inhibitor, 100 ng/mL LPS, 3 h, normalised to 10 μM Batimastat
Experimental: (§5) Two separate screens to identify novel small molecule inhibitors of iRhom2/ADAM17 activity were developed. […] Therefore, the primary screen for small molecule inhibitors of iRhom2/ADAM17 was a screen for inhibitors that blocked the release of TNFα from LPS-stimulated THP-1 human myeloid cells, a process that depends on iRhom2 and ADAM17. Since the release of TNFα from THP-1 cells can be blocked at many stages of the LPS/TLR4/iRhom2/ADAM17 pathway, a secondary screen was performed for another iRhom2/ADAM17 selective substrate, Kit-ligand 2 (KL-2) (Maretzky T et al. (July 2013), “iRhom2 controls the substrate selectivity of stimulated ADAM17-dependent ectodomain shedding”, PNAS 110(28): 11433-11438) in a different human cell type, human embryonic kidney cells (HEK 293).
THP-1 cells were plated in low volume 384 wells (10,000 cells per well in 12.6 μL RPMI medium) together with inhibitors or 10 μM BB94 and incubated over night. The next day, TNFα shedding was initiated by stimulation of THP-1 cells with 100 ng/mL LPS (1.8 μL of an 800 ng/mL LPS stock) for 3 hrs at 37° C. The extent of released TNFα was detected with the corresponding HTRF antibodies labeled with europium cryptate (donor) and d2 (acceptor). The HTRF signal was generated by proximity of europium cryptate and d2. All detection reagents were purchased from Cisbio. TNFα detection was performed according to the manufacturer's protocol (Product Insert for Cisbio TNFα (h) Kit Part #62HTNFAPEG & 62HTNFAPEH;
Low volume 384 well plates were pre-coated with small molecule library compounds for a final concentration of 20 μM in a 15 μL reaction, or 0.75 μL of 200 μM stock of BB94 in 5% DMSO (final concentration 0.25%). 12.6 μL of cell suspension [8E5/mL; 10,000 cells/well; culture RPMI medium] and pre-incubated at 37° C., 5% CO2, over night. The next day, 1.8 μL of an 800 ng/mL LPS stock was added [final concentration 100 ng/mL in 15 μL assay] and the cells were incubated at 37° C., 5% CO2, for 3 h. Subsequently, 3 μL of the HTRF-mix [used at 1:3 dilution of cisbio HTRF human TNF] was added and the plates were incubated for an additional 2 hrs at 25° C. After an incubation at room temperature for 2 h, the HTRF readout was performed. Then data evaluation for normalization against the 10 μM Batimastat control (=100% […]) was applied.

[3] = tested on: KL2 release from HEK-293 cells; assay: Secondary screen (Example 3b): PMA-stimulated KL2 release from HEK-293 cells, AP readout; conditions: Homo sapiens, HEK293, HEK-293 cells expressing KL2-AP, PMA 100 ng/mL, 2 h, read-out: Secondary Screen IC50 KitL2
Experimental: as §5, §2, §3
as §4, with “for KL2-AP” for “for TGF-AP”, “cells (40,000/well)” for “cells (20,000/well)”, “and 3” for “and 12”, “well plate and 9 μL of AP Balance Buffer was added per well.” for “well plate.”

[4] = tested on: TNFα release from THP-1 cells; assay: Primary screen (Example 1a): LPS-stimulated TNFα release from THP-1 cells, HTRF; conditions: Homo sapiens, 100 ng/mL LPS, 3 h, normalised to 50 μM Batimastat, read-out: Primary Screen XC50 TNFα
Experimental: as §5
THP-1 cells were plated in 384 or 1,536 wells and transferred on the ultra-high throughput screening (uHTS) platform Mark III, and TNFα shedding was initiated by LPS stimulation of THP-1 cells. The extent of released TNFα was detected with the corresponding HTRF antibodies labeled with europium cryptate (donor) and d2 (acceptor). The HTRF signal was generated by proximity of europium cryptate and d2. All detection reagents were purchased from Cisbio. TNFα detection was performed according to the manufacturer's protocol (Product Insert for Cisbio TNFα (h) Kit Part #62HTNFAPEG & 62HTNFAPEH;
7.5 nL compound and controls in DMSO [10 μM in assay; 0.25% DMSO in 3 [μL Assay] were dissolved in 2 μL cell suspension [2.4E6/mL; 4800 cells/well; culture w/o PenStrep], pre-incubated at 37° C., 5% CO2, for 15 min with 1 μL LPS [100 ng/mL in 3 μL assay]. The cells were incubated at 37° C., 5% CO2, for 3 h with 2 μL of the HTRF-mix [1:300 f.c.]. After an incubation at room temperature for 2 h or longer, the HTRF readout was performed. Then data evaluation for normalization against the 50 μM Batimastat control (=100% […]) was applied. As an additional control, 300 nM Batimastat was used to monitor performance of cells and assay sensitivity over time.

[5] = tested on: TGFα release from HEK-293 cells; assay: Counter screen (Example 4a): PMA-stimulated TGFα release from HEK-293 cells, AP readout; conditions: Homo sapiens, HEK293, HEK-293 cells expressing TGFα-AP, PMA 100 ng/mL, 2 h, read-out: Counter Screen XC50 TGFα
Experimental: as §1
(§6) First, expression plasmids for alkaline phosphatase (AP)-fused KL2 and TGFα were designed and generated through gene synthesis followed by subcloning into the pcDNA3.1(+)/Hygro expression vector. […] Subsequently, DNA amplifications were performed to obtain sufficient amounts of the expression vectors. The quality of DNA and gene sequences were confirmed through restriction digest and Sanger sequencing. In parallel, cell culture of THP-1 and HEK-293 cells was initiated. Master and working cell banks were prepared. Both cell lines were scaled up and transfected with the respective constructs by electroporation. During cell culturing, cell density and viability were monitored to ensure optimal conditions for the transfections. After PMA stimulation, AP-coupled KL2 or TGFα were detected by measurement of AP activity in the supernatant. […] In contrast, THP-1 cells turned out to be not a suitable transfection host resulting in a loss of cell viability after transfection. The decision was made to proceed with HEK-293 for both selectivity assays and to establish polyclonal cell lines stably expressing AP-coupled KL2 or TGFα.
as §3, with “(30” for “(BB94, 10”
(§7) 60 μL of cells (20,000/well) were added to a sterile 384-well plate. After incubation overnight at 37° C. (5% CO2), 50 μL medium were removed and 20 μL of prediluted compounds were added to the cells. After incubation for 15 min, 20 μL of PMA (100 ng/mL final conc.) were added. The cells were incubated for 2 h at 37° C. (5% CO2). Then, 20 μL of the supernatant was transferred to a fresh plate and 20 μL of pNPP (5 mM final conc.) was added. The AP reaction was performed for 1 h at RT. The reaction was stopped by addition of 20 μL of NaOH (1 M final conc.) and the absorbance of pNP was measured at 405 nm.

[6] = tested on: KL2 release from HEK-293 cells; assay: Secondary screen (Example 3a): PMA-stimulated KL2 release from HEK-293 cells, AP readout; conditions: Homo sapiens, HEK293, HEK-293 cells expressing KL2-AP, PMA 500 ng/mL, 2 h, read-out: Secondary Screen XC50 KL2
Experimental: as §5, §6
as §3, with “(30” for “(BB94, 10”
as §7, with “of cells (40,000/well) were added” for “of cells (20,000/well) were added”, “of PMA (500 ng/mL final” for “of PMA (100 ng/mL final”, “was added. AP reaction” for “was added. The AP reaction”

| Compound | pIC50 [1] | pIC50 [2] | pIC50 [3] | pIC50 [4] | pIC50 [5] | pIC50 [6] |
| --- | --- | --- | --- | --- | --- | --- |
| Cc1cc(C)c2nc(N3CCNCC3)sc2c1 [Compound 49] | < 4.40 | 4.88 | < 4.40 | – | – | – |
| Cc1ccccc1Nc1nc(NCCCO)nc2c1cnn2-c1ccccc1 [Compound 50] | < 4.40 | 4.96 | 4.79 | – | – | – |
| O=C(c1c(Cl)cccc1Cl)N1CCC(Cc2ccc3c(c2)OCO3)CC1 [Compound 43] | < 4.40 | 5.40 | 4.45 | – | – | – |
| O=C(NC1CCCCCCC1)C1CCCN(c2nc3ccc(Br)cc3[nH]2)C1 (stereo not drawn) [Compound 47] | < 4.40 | 5.62 | 5.26 | – | – | – |
| O=C1Nc2ccccc2/C1=N\Nc1nc(Nc2ccccc2)nc(Nc2ccccc2)n1 [Compound 46] | < 4.40 | 5.57 | 4.95 | – | – | – |
| Cc1ccsc1C1Nc2ccc3ccccc3c2C2=C1C(=O)CCC2 (stereo not drawn) [Compound 45] | < 4.40 | < 4.49 | 4.55 | – | – | – |
| Cc1cc(NCCCn2ccnc2)n2ncc(-c3ccc(Cl)cc3)c2n1 [Compound 48] | < 4.40 | 4.88 | < 4.40 | – | – | – |
| O=C(NCCc1cccnc1)c1ccc(-c2cc(-c3ccc(N4CCCCC4)cc3)n[nH]2)cc1 [Compound 44] | < 4.40 | 4.97 | < 4.40 | – | – | – |
| O=C(NN1CCN(Cc2ccccc2)CC1)C12CC3CC(CC(C3)C1)C2 [Compound 12] | – | – | – | 5.05 | < 3.89 | < 3.89 |
| O=C(c1c(Cl)cccc1Cl)N1CCN(Cc2ccc3c(c2)OCO3)CC1 [Compound 4] | – | – | – | 4.51 | < 3.89 | < 3.89 |
| c1ccc(-c2ncn(CCCc3cccnc3)c2-c2ccncc2)cc1 [Compound 20] | – | – | – | > 6.10 | < 3.89 | < 3.89 |
| CCCn1c(=O)nc(N)c2c(-c3ccc(OC)cc3)csc21 [Compound 28] | – | – | – | 5.77 | < 3.89 | < 3.89 |
